In assay [1] the target is T1, Coagulation factor X (Homo sapiens, UniProt P00742). The assay is described as follows: Binding affinity against the Factor Xa (FXa).
The target of assay [2] is T1, Coagulation factor X. As to the kind of experiment: Binding affinity against the coagulation factor X.
The target in assay [3] is T1, Coagulation factor X. As to the kind of experiment: Binding affinity against Coagulation factor X.

T1 sequence (P00742 41-179 limits assumed): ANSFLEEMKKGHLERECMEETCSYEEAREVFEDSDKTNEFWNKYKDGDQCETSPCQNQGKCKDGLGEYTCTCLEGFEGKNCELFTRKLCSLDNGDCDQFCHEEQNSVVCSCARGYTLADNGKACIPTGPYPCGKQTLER
T1 sequence (P00742 235-488 limits assumed): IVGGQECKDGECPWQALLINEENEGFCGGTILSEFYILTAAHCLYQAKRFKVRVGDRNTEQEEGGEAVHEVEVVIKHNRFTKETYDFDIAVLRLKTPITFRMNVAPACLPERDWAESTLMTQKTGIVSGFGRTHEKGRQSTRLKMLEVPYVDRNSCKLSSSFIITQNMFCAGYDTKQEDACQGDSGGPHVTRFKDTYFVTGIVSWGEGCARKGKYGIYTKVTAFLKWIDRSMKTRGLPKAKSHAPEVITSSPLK

With `NS(=O)(=O)c1ccccc1-c1ccc(NC(=O)C2CC(c3cccc(C(F)(F)F)c3)=NO2)cc1` (configuration not stated), the inhibition constant Ki (commonly a dissociation constant, usually derived from enzyme kinetics or from competition with a known ligand) in assay [1] turned out to be 17 µM.

On to `NS(=O)(=O)c1ccccc1-c1ccc(NC(=O)C2CC(c3ccc(I)cc3)=NO2)cc1` (configuration not stated), for which, in assay [2], the Ki was 1.9 µM.

In the case of `CCCCCC1=NOC(C(=O)Nc2ccc(-c3ccccc3S(N)(=O)=O)cc2)C1` (configuration not stated), the affinity in assay [2], expressed as Ki, was 4.5 µM.

Take `NS(=O)(=O)c1ccccc1-c1ccc(NC(=O)C2CC(CCc3ccccc3)=NO2)cc1` (configuration not stated): the Ki in assay [1] is over 30 µM.

In turn, `NS(=O)(=O)c1ccccc1-c1ccc(NC(=O)C2CC(c3ccc(Cl)cc3)=NO2)cc1` (configuration not stated) showed a Ki in assay [2] of 1 µM.

With `NS(=O)(=O)c1ccccc1-c1ccc(NC(=O)C2CC(c3ccc(Cl)cc3Cl)=NO2)cc1` (configuration not stated), the affinity in assay [1], expressed as Ki, was 1.7 µM.

In the case of `NS(=O)(=O)c1ccccc1-c1ccc(NC(=O)C2CC(c3cccc(Cl)c3)=NO2)cc1` (configuration not stated), the Ki in assay [2] was 5.9 µM.

As to `NS(=O)(=O)c1ccccc1-c1ccc(NC(=O)C2CC(c3ccccc3Cl)=NO2)cc1` (configuration not stated), in assay [1], the Ki came out at 1.7 µM.

Regarding `NS(=O)(=O)c1ccccc1-c1ccc(NC(=O)C2CC(c3c(O)ccc4ccccc34)=NO2)cc1` (configuration not stated), the Ki in assay [1] is over 30 µM.

`NS(=O)(=O)c1ccccc1-c1ccc(NC(=O)C2CC(c3cccs3)=NO2)cc1` (configuration not stated) returned a Ki in assay [1] of 1.3 µM.

For the compound `NS(=O)(=O)c1ccccc1-c1ccc(NC(=O)C2CC(c3ccc(Cl)c(F)c3)=NO2)cc1` (configuration not stated), the Ki in assay [1] was determined as 2.5 µM.

Consider `NS(=O)(=O)c1ccccc1-c1ccc(NC(=O)C2CC(c3cccc(C(=O)O)c3)=NO2)cc1` (configuration not stated), for which the Ki in assay [1] is over 30 µM.

Turning to `COc1cccc(C2=NOC(C(=O)Nc3ccc(-c4ccccc4S(N)(=O)=O)cc3)C2)c1` (configuration not stated), the Ki in assay [2] is 7.5 µM.

With `NS(=O)(=O)c1ccccc1-c1ccc(NC(=O)C2CC(c3ccc(F)c(F)c3)=NO2)cc1` (configuration not stated), the Ki in assay [2] stood at 4.6 µM.

In assay [1], `COc1ccc2ccccc2c1C1=NOC(C(=O)Nc2ccc(-c3ccccc3S(N)(=O)=O)cc2)C1` (configuration not stated) had a Ki of over 3 µM.

In assay [1], `NS(=O)(=O)c1ccccc1-c1ccc(NC(=O)C2CC(/C=C/c3ccccc3)=NO2)cc1` (configuration not stated) displayed a Ki of 2.3 µM.

The compound `NS(=O)(=O)c1ccccc1-c1ccc(NC(=O)C2CC(c3cccc(F)c3)=NO2)cc1` (configuration not stated) had a Ki in assay [2] of 7.8 µM.

`NS(=O)(=O)c1ccccc1-c1ccc(NC(=O)C2CC(c3ccc(C(F)F)cc3)=NO2)cc1` (configuration not stated) had a Ki in assay [1] of 1.6 µM.

`NS(=O)(=O)c1ccccc1-c1ccc(NC(=O)C2CC(c3ccc(Br)cc3)=NO2)cc1` (configuration not stated): the affinity in assay [2], expressed as Ki, was 4.1 µM.

In assay [1], `NS(=O)(=O)c1ccccc1-c1ccc(NC(=O)C2CC(c3ccc4c(c3)OCO4)=NO2)cc1` (configuration not stated) showed a Ki of 0.49 µM.

Take `NS(=O)(=O)c1ccccc1-c1ccc(NC(=O)C2CC(c3ccc(Cl)c(Cl)c3)=NO2)cc1` (configuration not stated): in assay [1], the affinity corresponds to a Ki of 2.7 µM.

Compound `Nc1cc(C2=NOC(C(=O)Nc3ccc(-c4ccccc4S(N)(=O)=O)cc3)C2)ccc1Cl` (configuration not stated) displayed a Ki in assay [3] of 0.13 µM.

Turning to `NS(=O)(=O)c1ccccc1-c1ccc(NC(=O)C2CC(c3ccc(-c4ccccc4)cc3)=NO2)cc1` (configuration not stated), the affinity in assay [1], expressed as Ki, was 1.1 µM.

`NS(=O)(=O)c1ccccc1-c1ccc(NC(=O)C2CC(c3cccc(Br)c3)=NO2)cc1` (configuration not stated) showed a Ki in assay [1] of over 30 µM.

In assay [1], `NS(=O)(=O)c1ccccc1-c1ccc(NC(=O)C2CC(c3cccc(I)c3)=NO2)cc1` (configuration not stated) showed a Ki of 10 µM.

Turning to `COc1ccc(C2=NOC(C(=O)Nc3ccc(-c4ccccc4S(N)(=O)=O)cc3)C2)cc1` (configuration not stated), the Ki in assay [1] turned out to be 0.7 µM.

For the compound `CO[C@@H]1[C@H]2OC(C)(C)O[C@H]2O[C@H]1C1=NOC(C(=O)Nc2ccc(-c3ccccc3S(N)(=O)=O)cc2)C1` (some centres not stated), in assay [1], the Ki is over 30 µM.

`Cc1ccc(C2=NOC(C(=O)Nc3ccc(-c4ccccc4S(N)(=O)=O)cc3)C2)cc1` (configuration not stated) returned a Ki in assay [1] of 2.1 µM.

With `CCCCCCOc1ccccc1C1=NOC(C(=O)Nc2ccc(-c3ccccc3S(N)(=O)=O)cc2)C1` (configuration not stated), affinity in assay [1] was put at a Ki of 1.8 µM.

For the compound `NS(=O)(=O)c1ccccc1-c1ccc(NC(=O)C2CC(c3ccc4c(c3[N+](=O)[O-])OCO4)=NO2)cc1` (configuration not stated), affinity in assay [1] was put at a Ki of 2.4 µM.

In turn, `NS(=O)(=O)c1ccccc1-c1ccc(NC(=O)C2CC(c3cc(I)c(O)c(I)c3)=NO2)cc1` (configuration not stated) came in with a Ki in assay [1] of over 30 µM.

In turn, `NS(=O)(=O)c1ccccc1-c1ccc(NC(=O)C2CC(/C=C/c3ccco3)=NO2)cc1` (configuration not stated) showed an inhibition constant (Ki) in assay [1] of 2.3 µM.

Turning to `CCCCCCCCCCC1=NOC(C(=O)Nc2ccc(-c3ccccc3S(N)(=O)=O)cc2)C1` (configuration not stated), the Ki in assay [1] came to 17 µM.

Turning to `NS(=O)(=O)c1ccccc1-c1ccc(NC(=O)C2CC(c3ccc4ccccc4c3)=NO2)cc1` (configuration not stated), the affinity in assay [1], expressed as Ki, was 20 µM.

As to `NS(=O)(=O)c1ccccc1-c1ccc(NC(=O)C2CC(c3ccccc3)=NO2)cc1` (configuration not stated), the affinity in assay [1] corresponds to a Ki of 11 µM.

Regarding `COc1ccc(Br)cc1C1=NOC(C(=O)Nc2ccc(-c3ccccc3S(N)(=O)=O)cc2)C1` (configuration not stated), the Ki in assay [1] is over 30 µM.

In assay [1], `NS(=O)(=O)c1ccccc1-c1ccc(NC(=O)C2CC(c3ccc(O)cc3)=NO2)cc1` (configuration not stated) displayed a Ki of 22 µM.

`NS(=O)(=O)c1ccccc1-c1ccc(NC(=O)C2CC(c3cccc4ccccc34)=NO2)cc1` (configuration not stated) gave a Ki in assay [1] of over 30 µM.

In turn, `NS(=O)(=O)c1ccccc1-c1ccc(NC(=O)C2CC(c3ccc4c(c3Cl)OCO4)=NO2)cc1` (configuration not stated) showed a Ki in assay [1] of 1.7 µM.

As for `NS(=O)(=O)c1ccccc1-c1ccc(NC(=O)C2CC(c3cccc(O)c3)=NO2)cc1` (configuration not stated), in assay [1], the Ki was over 3 µM.

Take `NS(=O)(=O)c1ccccc1-c1ccc(NC(=O)C2C[C+](c3ccc(Cl)c([N+](=O)[O-])c3)[N-]O2)cc1` (configuration not stated): in assay [1], the Ki is over 30 µM.

On to `COc1cc(C2=NOC(C(=O)Nc3ccc(-c4ccccc4S(N)(=O)=O)cc3)C2)ccc1O` (configuration not stated), for which, in assay [1], the Ki amounted to 20 µM.
